Values joined by “and” are separate entries in the source; they are usually repeats but may differ in a detail not shown here. Identical values can stand only once. Results filed as inconclusive are left out.
Tested on: MX-1 breast xenograft, nude mice, tumor weight T/C
Assay: NCI In Vivo Anticancer Drug Screen. Data for tumor model Human Mammary Carcinoma MX-1 Xenograft (intrarenal inoculation) in NU/NU Swiss (nude) mice
Conditions: endpoint: mean tumor weight change, higher = larger tumour
Summary of the method: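 Mice carrying the implanted tumor receive either test agent or vehicle. Tumor size or survival is then recorded for both groups. Results are stated as the treated-to-control quotient.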

[1] = dose: 600.0 mg/kg/injection, schedule: Q04DX003 (sc), vehicle: saline with Tween-80

[N-]=[N+]=CC(=O)CCC(=O)C=[N+]=[N-]
T/C (dose: 3.0 mg/kg/injection, schedule: Q01DX010 (sc), vehicle: DMSO): -72 % of control
T/C (dose: 6.0 mg/kg/injection, schedule: Q01DX010 (sc), vehicle: DMSO): -42 % of control
T/C (dose: 12.0 mg/kg/injection, schedule: Q01DX010 (sc), vehicle: DMSO): 5 % of control
T/C (dose: 15.0 mg/kg/injection, schedule: Q04DX003 (sc), vehicle: DMSO): 6 % of control
T/C (dose: 15.0 mg/kg/injection, schedule: Q04DX003 (sc), vehicle: saline): 23 % of control
T/C (dose: 30.0 mg/kg/injection, schedule: Q04DX003 (sc), vehicle: DMSO): 3 % of control
T/C (dose: 30.0 mg/kg/injection, schedule: Q04DX003 (sc), vehicle: saline): 16 % of control
T/C (dose: 60.0 mg/kg/injection, schedule: Q04DX003 (sc), vehicle: saline): 6 % of control
T/C (dose: 120.0 mg/kg/injection, schedule: Q04DX003 (sc), vehicle: DMSO): -13 % of control
T/C (dose: 120.0 mg/kg/injection, schedule: Q04DX003 (sc), vehicle: saline): 8 % of control

CSC1SCC2C(=O)N(C)C(C(C)C)C(=O)OCC(NC(=O)c3cnc4ccccc4n3)C(=O)NC(C)C(=O)N(C)C1C(=O)N(C)C(C(C)C)C(=O)OCC(NC(=O)c1cnc3ccccc3n1)C(=O)NC(C)C(=O)N2C (stereo unspecified)
T/C (dose: 60.0 micrograms/kg/injection, schedule: Q01DX010 (sc), vehicle: saline): 109 % of control
T/C (dose: 120.0 micrograms/kg/injection, schedule: Q01DX010 (sc), vehicle: saline): 87 % of control
T/C (dose: 240.0 micrograms/kg/injection, schedule: Q01DX010 (sc), vehicle: saline): 40 % of control

CCCC(=O)Nc1ncnc2c1ncn2C1OC2COP(=O)(O)OC2C1OC(=O)CCC (stereo unspecified)
T/C (dose: 200.0 mg/kg/injection, schedule: Q01DX010 (sc), vehicle: saline): 159 % of control
T/C (dose: 400.0 mg/kg/injection, schedule: Q01DX010 (sc), vehicle: saline): 124 % of control

Nc1ncnc2c1ncn2C1OC(COP(=O)(O)O)C(O)C1O (stereo unspecified)
T/C (dose: 100.0 mg/kg/injection, schedule: Q01DX010 (ip), vehicle: saline): 85 % of control
T/C (dose: 200.0 mg/kg/injection, schedule: Q01DX010 (ip), vehicle: saline): 90 % of control
T/C (dose: 333.33 mg/kg/injection, schedule: Q04DX003 (sc), vehicle: saline): 124 % of control
T/C (dose: 400.0 mg/kg/injection, schedule: Q01DX010 (ip), vehicle: saline): 51 % of control
T/C (dose: 666.65 mg/kg/injection, schedule: Q04DX003 (ip), vehicle: saline): 106 % of control
T/C (dose: 666.65 mg/kg/injection, schedule: Q04DX003 (sc), vehicle: saline): 115 % of control
T/C (dose: 800.0 mg/kg/injection, schedule: Q01DX010 (ip), vehicle: saline): 6 % of control
T/C (dose: 1333.3 mg/kg/injection, schedule: Q04DX003 (ip), vehicle: saline): 49 % of control
T/C (dose: 1333.3 mg/kg/injection, schedule: Q04DX003 (sc), vehicle: saline): 62 % of control
T/C (dose: 1600.0 mg/kg/injection, schedule: Q01DX010 (sc), vehicle: saline): -36 % of control
T/C (dose: 2666.6 mg/kg/injection, schedule: Q04DX003 (ip), vehicle: saline): 29 % of control
T/C (dose: 2666.6 mg/kg/injection, schedule: Q04DX003 (sc), vehicle: saline): 76 % of control

O=NN(CCCl)C(=O)NCCCl
T/C (dose: 2.0 mg/kg/injection, schedule: Q01DX010 (sc), vehicle: saline): 74 % of control
T/C (dose: 4.0 mg/kg/injection, schedule: Q01DX010 (sc), vehicle: saline): 76 % of control
T/C (dose: 4.0 mg/kg/injection, schedule: Q01DX010 (sc), vehicle: suspension in saline): 80 % of control
T/C (dose: 7.5 mg/kg/injection, schedule: Q04DX003 (sc), vehicle: suspension in saline): 80 % of control
T/C (dose: 8.0 mg/kg/injection, schedule: Q01DX010 (sc), vehicle: saline): 56 % of control
T/C (dose: 8.0 mg/kg/injection, schedule: Q01DX010 (sc), vehicle: suspension in saline): 44 % of control
T/C (dose: 15.0 mg/kg/injection, schedule: Q04DX003 (sc), vehicle: suspension in saline): 37 % of control and 52 % of control
T/C (dose: 16.0 mg/kg/injection, schedule: Q01DX010 (sc), vehicle: suspension in saline): 2 % of control
T/C (dose: 32.0 mg/kg/injection, schedule: Q01DX010 (sc), vehicle: saline): 2 % of control

NCC1CCC(C(=O)O)CC1 (stereo unspecified)
T/C [1]: 115 % of control
T/C (dose: 1200.0 mg/kg/injection, schedule: Q04DX003 (sc), vehicle: saline with Tween-80): 76 % of control
T/C (dose: 2400.0 mg/kg/injection, schedule: Q04DX003 (sc), vehicle: saline with Tween-80): 155 % of control

CN(C(=S)S(=O)(=O)C12CC3CC(CC(C3)C1)C2)c1ccccc1
T/C (dose: 800.0 mg/kg/injection, schedule: Q04DX003 (sc), vehicle: Klucel (hydroxypropylcellulose) (HPC)): 204 % of control

COC1CC(C)C(OC)c2cc(O)cc(c2O)NC(=O)/C(C)=C/C=C\C(C)C(OC(N)=O)/C(C)=C\C(C)C1OC (stereo unspecified)
T/C (dose: 12.5 mg/kg/injection, schedule: Q04DX003 (sc), vehicle: saline + alcohol): 103 % of control
T/C (dose: 25.0 mg/kg/injection, schedule: Q04DX003 (sc), vehicle: saline + alcohol): 104 % of control
T/C (dose: 50.0 mg/kg/injection, schedule: Q04DX003 (sc), vehicle: saline + alcohol): 90 % of control
T/C (dose: 100.0 mg/kg/injection, schedule: Q04DX003 (sc), vehicle: saline + alcohol): 109 % of control

CN=S(=O)(OCCCCCOS(=O)(=NC)c1ccccc1)c1ccccc1 (stereo unspecified)
T/C [1]: 76 % of control

O=c1n[n+]([O-])ccn1C1OC(CO)C(O)C1O (stereo unspecified)
T/C (dose: 100.0 mg/kg/injection, schedule: Q01DX010 (sc), vehicle: suspension in saline): 56 % of control
T/C (dose: 200.0 mg/kg/injection, schedule: Q01DX010 (sc), vehicle: suspension in saline): 91 % of control
T/C (dose: 400.0 mg/kg/injection, schedule: Q01DX010 (sc), vehicle: suspension in saline): 86 % of control

CNC(=O)ON(C(C)=O)C(=O)NC
T/C (dose: 50.0 mg/kg/injection, schedule: Q04DX003 (sc), vehicle: saline): 69 % of control
T/C (dose: 100.0 mg/kg/injection, schedule: Q01DX010 (sc), vehicle: water): 108 % of control
T/C (dose: 150.0 mg/kg/injection, schedule: Q01DX010 (sc), vehicle: water): 67 % of control
T/C (dose: 200.0 mg/kg/injection, schedule: Q01DX010 (sc), vehicle: water): 85 % of control
T/C (dose: 200.0 mg/kg/injection, schedule: Q04DX003 (sc), vehicle: saline): 16 % of control

C[n+]1c2cc(N)ccc2cc2ccc(N)cc21
T/C (dose: 1.56 mg/kg/injection, schedule: Q01DX010 (sc), vehicle: saline): 79 % of control
T/C (dose: 3.13 mg/kg/injection, schedule: Q01DX010 (sc), vehicle: saline): 66 % of control
T/C (dose: 6.25 mg/kg/injection, schedule: Q01DX010 (sc), vehicle: saline): 100 % of control

NC(=O)c1ncn(C2OC(CO)C(O)C2O)n1 (stereo unspecified)
T/C (dose: 225.0 mg/kg/injection, schedule: Q04DX003 (sc), vehicle: saline): 108 % of control
T/C (dose: 450.0 mg/kg/injection, schedule: Q04DX003 (sc), vehicle: saline): 61 % of control
T/C (dose: 900.0 mg/kg/injection, schedule: Q04DX003 (sc), vehicle: saline): 45 % of control

CC1=NN(c2cccc(S(=O)(=O)O)c2)C(=O)C1N=Nc1cc(Cl)cc(S(=O)(=O)O)c1O.CC1=NN(c2cccc(S(=O)(=O)O)c2)C(=O)C1N=Nc1cc(Cl)cc(S(=O)(=O)O)c1O.[Cr] (stereo unspecified)
T/C (dose: 150.0 mg/kg/injection, schedule: Q04DX003 (ip), vehicle: saline): 151 % of control
T/C (dose: 300.0 mg/kg/injection, schedule: Q04DX003 (ip), vehicle: saline): 94 % of control
T/C (dose: 600.0 mg/kg/injection, schedule: Q04DX003 (ip), vehicle: saline): 50 % of control

CN(C)CCN1C(=O)c2cccc3cc([N+](=O)[O-])cc(c23)C1=O
T/C (dose: 9.0 mg/kg/injection, schedule: Q04DX003 (sc), vehicle: saline with Tween-80): 52 % of control
T/C (dose: 18.0 mg/kg/injection, schedule: Q04DX003 (sc), vehicle: saline with Tween-80): 43 % of control
T/C (dose: 36.0 mg/kg/injection, schedule: Q04DX003 (sc), vehicle: saline with Tween-80): 55 % of control

CCOC(=O)c1ccc(NN=NCCF)cc1
T/C (dose: 150.0 mg/kg/injection, schedule: Q04DX003 (ip), vehicle: distilled water + Tween-80 + alcohol): 107 % of control
T/C (dose: 300.0 mg/kg/injection, schedule: Q04DX003 (ip), vehicle: distilled water + Tween-80 + alcohol): 112 % of control
T/C (dose: 600.0 mg/kg/injection, schedule: Q04DX003 (ip), vehicle: distilled water + Tween-80 + alcohol): 55 % of control

CN(C)N=Nc1ccc(C(=O)O)cc1
T/C (dose: 100.0 mg/kg/injection, schedule: Q04DX003 (ip), vehicle: saline): 55 % of control
T/C (dose: 200.0 mg/kg/injection, schedule: Q04DX003 (ip), vehicle: saline): 16 % of control
T/C (dose: 400.0 mg/kg/injection, schedule: Q04DX003 (ip), vehicle: saline): -31 % of control

From PubChem BioAssay AID296 (DTP/NCI, 2004)
